{"source": "patent US9908826B2", "about": "“Synthetic method” (University Court of the University of St. Andrews, priority 2014, dated 2018)", "key": {"[1]": {"molecular_target": "T1, human oestrogen receptor (Homo sapiens, UniProt P03372)", "T1 construct": "expressed in transfected cells; host or cells: recombinant yeast (hER yeast strain developed by Glaxo Welcome)", "T1 sequence (P03372 1-595)": "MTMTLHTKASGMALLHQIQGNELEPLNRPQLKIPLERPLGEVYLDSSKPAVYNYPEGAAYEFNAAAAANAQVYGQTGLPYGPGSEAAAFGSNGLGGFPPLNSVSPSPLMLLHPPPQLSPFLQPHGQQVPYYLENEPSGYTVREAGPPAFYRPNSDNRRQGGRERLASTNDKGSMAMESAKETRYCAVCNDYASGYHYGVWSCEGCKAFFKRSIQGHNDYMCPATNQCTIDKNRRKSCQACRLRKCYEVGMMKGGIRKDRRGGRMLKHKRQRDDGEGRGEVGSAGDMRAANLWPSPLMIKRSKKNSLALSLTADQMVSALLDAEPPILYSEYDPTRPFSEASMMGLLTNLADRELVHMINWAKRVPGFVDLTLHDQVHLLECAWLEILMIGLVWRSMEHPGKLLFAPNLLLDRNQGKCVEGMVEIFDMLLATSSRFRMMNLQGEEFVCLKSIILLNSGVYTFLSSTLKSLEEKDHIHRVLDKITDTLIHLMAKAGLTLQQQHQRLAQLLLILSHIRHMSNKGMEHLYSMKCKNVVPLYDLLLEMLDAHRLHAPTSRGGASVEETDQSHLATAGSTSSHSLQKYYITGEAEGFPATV", "assay": "recombinant yeast oestrogen screen (YES) assay", "assay_type": "cell-based", "text": "In order to test our hypothesis that 3-nonylphenol might show less oestrogenicity than either the linear or the 4-nonylphenol, we have carried out a yeast oestrogen screen (YES) assay which is specific for oestradiol mimics.\nThe recombinant hER yeast strain was developed by Glaxo Welcome and details of the yeast oestrogen screen have been described previously (Routledge and Sumpter, 1996).\nIn brief, yeast cells were transfected with the human oestrogen receptor gene together with expression plasmids; the oestrogen response element and the lac-Z gene encoding the enzyme β-galactosidase. The yeast cells were incubated in medium containing the test chemical and the chromogenic substrate, […] (CPRG), and active ligands induced β-gal expression. The β-galactosidase secreted into the medium causes the yellow CPGR to change into a red product, and this is measurable by absorbance.\nThe medium components were prepared and the standard assay procedure was followed.^32 Chemicals were serially diluted in ethanol and 10 μl volumes were transferred to 96-well flat-bottom plates where the ethanol was allowed to evaporate to dryness. Then, 200 μl medium containing CPRG and yeast (final cell number of 5×10^5 cells/ml) was added to each well. Included with every assay was a negative control, ethanol, and a positive control, 17 β-oestradiol (stock solution of 17 β-oestradiol (2×10^−7 mol dm^−3) serially diluted in ethanol to achieve final concentrations of 1×10^−8 mol dm^−3 to 4.88×10^−12 mol dm^−3 in the wells).\nThe absorbance values were corrected for cell density using the following equation: Corrected value=chemical540nm−(chemical620nm−ethanol blank620nm).\nAll chemicals were tested in duplicate and each YES was carried out at least three times."}, "[2]": {"test_system": "male Japanese Medaka fish", "details": "post-hatching stages of development, references 12, 13, 28; cited from earlier work"}, "[3]": {"molecular_target": "T1, human oestrogen receptor", "details": "studied before, reference 13; cited from earlier work"}, "[4]": {"details": "YES assay, initial 3-NP sample (Pd/C, contains small amounts of ring hydrogenated product)"}, "[5]": {"details": "second sample, [RhCl(PPh3)3] hydrogenation, no ring hydrogenation products"}}, "data": [{"smiles": "CCCCCCCCCc1cccc(O)c1", "note": "[3-NP, 3-Nonylphenol]", "values": [{"measurement": "oestrogenicity relative to 17 β-oestradiol (times as oestrogenic)", "setting": "[1]; YES assay (conclusion)", "value": "~10^−6 times"}, {"measurement": "oestrogenic response in the YES assay (in words)", "setting": "[1]; YES assay, FIG. 1 and FIG. 2", "value": "full dose response curve"}, {"measurement": "times less potent in oestrogenicity than the banned substance (4-nonylphenol)", "setting": "[1]; YES assay, 3-nonylphenol prepared by ethenolysis of cardanol (conclusion)", "value": "at least 150 times"}, {"measurement": "potency, fold less than 4-NP (mixed isomers)", "setting": "[1]; [4]", "value": "~300", "unit": "fold"}, {"measurement": "potency, fold less than 17 β-oestradiol", "setting": "[1]; [4]", "value": "approximately 1.5×10^6 fold"}, {"measurement": "reduction in oestrogenic activity on moving the linear alkyl group from the 4- to the 3-position (vs 4-n-NP)", "setting": "[1]; YES assay, tested 1×10^−3 to 5×10^−7 mol dm^−3, initial sample (Pd/C hydrogenation)", "value": 10, "unit": "fold"}, {"measurement": "orders of magnitude less oestrogenic than 4-nonylphenol", "setting": "[1]; oestrogenicity studies, summary statement", "value": "2 orders of magnitude"}, {"measurement": "increase in oestrogenicity of second sample versus initial sample", "setting": "[1]; [5]", "value": 2, "unit": "fold"}, {"measurement": "oestrogenicity, times lower than that of 4-NP mixed isomers", "setting": "[1]; [5]", "value": 150, "unit": "times"}]}, {"smiles": "CCCCCCCCCc1ccc(O)cc1", "note": "[4-NP, 4-nonylphenol]", "values": [{"measurement": "endocrine disrupting effect", "setting": "[2]", "value": "induce testes-ova"}]}, {"smiles": "CCCCCCCCCc1ccc(O)cc1", "note": "[4-n-NP, 4-nonylphenol]", "values": [{"measurement": "oestrogenicity compared with commercial 4-nonylphenol with mixed alkyl chains", "setting": "[3]", "value": "lower oestrogenicity"}]}]}
